For one data set, the system named is Guinea Pigs. As to the kind of experiment: Test for skin sensitization in guinea pigs (adjuvant and patch test method). The procedure: The dorsal area of male Hartley guinea pigs (n=5) at the age of 7 weeks was shaved with an electric shaver, and on the following day, primary sensitization was initiated. In the primary sensitization, emulsified complete Freund's adjuvant was intradermally administered at a dose of 0.1 ml only at the initial time, and an adhesive plaster for a patch test spread with 0.1 g of an ointment containing a test compound at 1%, was applied in an occluded state to the site where the adjuvant was intradermally administered. As a base of the ointment, petrolatum containing sorbitan sesquioleate (a surfactant) at 1% was used. At 24 hours after the adhesive plaster for a patch test was applied, the adhesive plaster was removed, and the application site was cleaned by wiping. The procedure of this primary sensitization was performed once daily and continued for a total of 3 days. On 7 days after the initial application of the primary sensitization, secondary sensitization was performed. The site subjected to the primary sensitization was shaved, and an ointment containing sodium lauryl sulfate at 10% was applied thereto in an open state. After 24 hours, the application site was cleaned by wiping, and a lint cloth spread with 0.2 g of the ointment containing a test compound at 1% was applied, thereto in an occluded state. At 48 hours after the lint cloth was applied, the cloth was removed, and the application site was cleaned by wiping. Challenge was performed on 13 days after initiation of the secondary sensitization. The dorsal area and flank area were shaved, and 0.01 g of the ointment containing a test compound at 1% was applied to the challenge site and left for about 24 hours. At about 24 hours and 48 hours after the challenge, observation of the skin surface was performed, and the presence or absence of sensitizing was determined. The determination was carried out by scoring according to the evaluation criteria (see Table 1) of the Draize method (1959).
In this connection, as a positive control, 1-chloro-2,4-dinitrobenzene (DNCB) (sensitization: 1%, challenge: 0.1%) was used. As the test compound, the compounds of Example 58 and Example 248 were used. As a comparative control, 4-[((1S,2R)-2-{[amino(imino)methyl]amino}cyclohexyl)amino]-N-isobutyl-6-methylquinazoline-2-carboxamide dihydrochloride described in Example 383 in Patent document 1 (sensitization: 0.1%, induction: 1%) was used.

Another data set concerns Rabbits. The settings on record: female, Kbs: JW, rabbit, in vivo, 24 h. The text has this:
Then, erythema and edema formation at the application site was observed. […] The mean value of the sum of erythema and edema scores was used as a simple primary skin irritation index. […]

The mark [1] stands for this setting: positive control, sensitization: 1%, challenge: 0.1%, n=5.

In the case of `Cc1ccc2nc(C(=O)NCC(C)C)nc(N[C@H]3CCCC[C@H]3NC(=N)N)c2c1.Cl.Cl` [Comparative control A, 4-[((1S,2R)-2-{[amino(imino)methyl]amino}cyclohexyl)amino]-N-isobutyl-6-methylquinazoline-2-carboxamide dihydrochloride], the “edema (Draize score, cases)” value in the data set on Guinea Pigs (guinea pig, in vivo) was “edema was not observed in all the cases”. In addition, the “erythema (Draize score, cases)” value in the data set on Guinea Pigs (male, Hartley, guinea pig, in vivo) is reported as “well-defined erythema (score 2) was observed in 2/5 cases”. In the data set with Rabbits, the “Simple primary skin irritation index” value came out at 1.8.

As for `O=[N+]([O-])c1ccc(Cl)c([N+](=O)[O-])c1` [DNCB, 1-chloro-2,4-dinitrobenzene], in the data set on Guinea Pigs (setting [1]), the “edema (Draize score, cases)” value was “score 1 in 3/5 cases, and score 0 in 2/5 cases”; the “erythema (Draize score, cases)” value is “score 3 in 3/5 cases, score 2 in 1/5 cases, and score 1 in 1/5 cases”.
